This passage reports Ki results from patent US9611251B2, “Substituted piperidine compounds and their use as orexin receptor modulators” (Janssen Pharmaceutica NV, priority 2013, dated 2017).

The structures appear in SMILES notation. Where a name gives a salt, the structure may show the parent alone.

One test addresses rat orexin 1 receptor (Rattus norvegicus, UniProt P56718). Nature of the test: Rat orexin 1 receptor radioligand binding.
Conditions: not given
The method, then: (§1) Data are analyzed using pc-Sandy macro and graphed on Graphpad Prism 5. For analysis, each concentration point is averaged from triplicate values and the averaged values are plotted on Graphpad Prism. The IC50 was determined by applying the following equation (GraphPad Prism 5.0, SanDiego) for one site competition where X=log (concentration) and Y=specific binding. Top denotes the total [^3H]-(1-(5-(2-fluoro-phenyl)-2-methyl-thiazol-4-yl)-1-((S)-2-(5-phenyl-(1,3,4)oxadiazol-2-ylmethyl)-pyrrolidin-1-yl)-methanone) binding, bottom denotes the nonspecific [^3H]-(1-(5-(2-fluoro-phenyl)-2-methyl-thiazol-4-yl)-1-((S)-2-(5-phenyl-(1,3,4)oxadiazol-2-ylmethyl)-pyrrolidin-1-yl)-methanone) binding. Graphpad Prism calculates Ki value from IC50 and the pre-determined Kd values for [^3H]-(1-(5-(2-fluoro-phenyl)-2-methyl-thiazol-4-yl)-1-((S)-2-(5-phenyl-(1,3,4)oxadiazol-2-ylmethyl)-pyrrolidin-1-yl)-methanone) and [3H]-EMPA. The Ki for each compound is then uploaded into 3DX. Each run comprises individual compounds in triplicate.
Rat and Human Orexin 1 Receptor Radioligand Binding Studies
After centrifugation (2K×G, 5 min at 4° C.), the supernatant was aspirated and the pellets frozen and stored at −80° C. […] Each cell pellet from a 15 cm plate was resuspended in 10 mL, stored on ice, and homogenized for 45 sec prior to addition to the reactions. Competition binding experiments in 96 well polypropylene plates were performed using [^3H]-(1-(5-(2-fluoro-phenyl)-2-methyl-thiazol-4-yl)-1-((S)-2-(5-phenyl-(1,3,4)oxadiazol-2-ylmethyl)-pyrrolidin-1-yl)-methanone) (Moraveck Corporation, specific activity=35.3 Ci/mmol), diluted to a 10 nM concentration in PBS (4 nM final). […] The final concentration of DMSO in the reactions is equal to or less than 0.1%. Total and nonspecific binding was determined in the absence and presence of 10 μM almorexant. The total volume of each reaction is 200 μL (20 μL of diluted compounds, 80 μL of [^3H]-(1-(5-(2-fluoro-phenyl)-2-methyl-thiazol-4-yl)-1-((S)-2-(5-phenyl-(1,3,4)oxadiazol-2-ylmethyl)-pyrrolidin-1-yl)-methanone) diluted in PBS and 100 μL of the cell suspension). […] The plates were washed 3 times by aspirating 30 ml PBS through the plates. Plates were dried in 55° C. oven for 60 min, scintillation fluid was added, and the radioactivity was counted on a Topcount (Packard).
Broadly, the Ki is a dissociation constant, usually derived from enzyme kinetics or from competition with a known ligand. In turn, `Cc1ccc(-c2ncco2)c(C(=O)N2CCC[C@@H](Nc3ccc(C(F)(F)F)cn3)[C@@H]2C)n1` [Example 25, ((2S,3R)-2-methyl-3-((5-(trifluoromethyl)pyridin-2-yl)amino)piperidin-1-yl)(6-methyl-3-(oxazol-2-yl)pyridin-2-yl)methanone hydrochloride] yielded a Ki of 12 nM.

Still in this test, the particulars now being: rat orexin 1 receptor radioligand binding; averages of 2-20 runs; read-out: rOX1 Ki.
In the case of `Cc1ccc(C(=O)N2CCC[C@@H](Nc3ccc(C(F)(F)F)cn3)[C@@H]2C)c(-n2nccn2)c1` (racemic) [Example 13, (±)-trans-(4-methyl-2-(2H-1,2,3-triazol-2-yl)phenyl)(2-methyl-3-((5-(trifluoromethyl)pyridin-2-yl)amino)piperidin-1-yl)methanone], the inhibition constant (Ki) worked out at 16 nM.
Consider `COc1ccc(C(=O)N2CCC[C@@H](Nc3ncc(Cl)cn3)[C@@H]2C)c(-n2nccn2)c1` (relative stereo) [Example 185, ((2 S*,3R*)-3-((5-chloropyrimidin-2-yl)amino)-2-methylpiperidin-1-yl)(4-methoxy-2-(2H-1,2,3-triazol-2-yl)phenyl)methanone], for which the Ki amounted to 259 nM.
For `COc1ccc(C(=O)N2CCC[C@@H](Nc3cnc(Cl)cn3)[C@@H]2C)c(-n2nccn2)c1` (relative stereo) [Example 186, ((2S*,3R*)-3-((5-chloropyrazin-2-yl)amino)-2-methylpiperidin-1-yl)(4-methoxy-2-(2H-1,2,3-triazol-2-yl)phenyl)methanone], the Ki came to 278 nM.
On the same count and under the same terms, with `COc1ccc(C(=O)N2CCC[C@@H](Nc3ccc(C(F)(F)F)cn3)[C@@H]2C)c(Cl)n1` (relative stereo) [Example 193, (2-chloro-6-methoxypyridin-3-yl)((2S*,3R*)-2-methyl-3-((5-(trifluoromethyl)pyridin-2-yl)amino)piperidin-1-yl)methanone] the figure was 1100 nM.
The same measure, in the same setting: with `Cc1cnc(C(=O)N2CCC[C@@H](Nc3nnc(C(F)(F)F)s3)[C@@H]2C)c(-n2nccn2)c1` (relative stereo) [Example 195, ((2S*,3R*)-2-methyl-3-((5-(trifluoromethyl)-1,3,4-thiadiazol-2-yl)amino)piperidin-1-yl)(5-methyl-3-(2H-1,2,3-triazol-2-yl)pyridin-2-yl)methanone] the figure was 357 nM; with `Cc1ccc(C(=O)N2CCC[C@@H](Nc3nnc(C(F)(F)F)s3)[C@@H]2C)c(-n2nccn2)n1` (relative stereo) [Example 196, (6-methyl-2-(2H-1,2,3-triazol-2-yl)pyridin-3-yl)((2S*,3R*)-2-methyl-3-((5-(trifluoromethyl)-1,3,4-thiadiazol-2-yl)amino)piperidin-1-yl)methanone], 1800 nM.

The next test deals with human orexin 2 receptor (Homo sapiens (Human), UniProt O43614). Nature of the test: Human orexin 2 receptor radioligand binding ([3H]-EMPA). Particulars: averages of 2-20 runs, read-out: hOX2 Ki. The method, then: as §1
human orexin 2 receptor, sequence (O43614 whole entry): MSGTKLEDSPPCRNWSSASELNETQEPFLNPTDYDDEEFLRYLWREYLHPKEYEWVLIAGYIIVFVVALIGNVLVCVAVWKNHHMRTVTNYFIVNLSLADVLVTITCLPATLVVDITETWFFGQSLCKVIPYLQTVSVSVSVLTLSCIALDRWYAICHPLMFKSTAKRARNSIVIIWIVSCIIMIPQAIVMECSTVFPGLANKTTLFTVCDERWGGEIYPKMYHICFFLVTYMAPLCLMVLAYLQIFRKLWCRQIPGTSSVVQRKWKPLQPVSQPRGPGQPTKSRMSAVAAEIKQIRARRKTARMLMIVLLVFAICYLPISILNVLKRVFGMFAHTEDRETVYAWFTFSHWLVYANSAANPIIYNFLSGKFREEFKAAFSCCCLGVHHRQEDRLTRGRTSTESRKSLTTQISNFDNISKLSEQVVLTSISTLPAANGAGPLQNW
Human Orexin 2 Receptor Radioligand Binding Studies
HEK293 stably expressing human orexin 2 receptor (Genebank accession number NM_001526) were grown to confluency in DMEM (Hyclone, cat #SH30022), 10% FBS, 1×Pen/Strep, 1× NaPyruvate, 10 mM HEPES, 600 ug/ml G418 media on 150 cm^2 tissue culture plates, washed with 5 mM EDTA in PBS (HyClone Dulbecco's Phosphate Buffered Saline 1× with Calcium and Magnesium, Cat #SH30264.01, hereafter referred to simply as PBS) and scraped into 50 ml tubes. After centrifugation (2K×G, 5 min at 4° C.), the supernatant was aspirated and the pellets frozen and stored at −80° C. […] Each cell pellet from a 15 cm plate was resuspended in 10 mL, stored on ice, and homogenized for 45 sec just prior to addition to the reactions. Competition binding experiments in 96 well polypropylene plates were performed using [^3H]-EMPA (Moraveck Corporation, specific activity=29.6 Ci/mmol), diluted to a 5 nM concentration in PBS (2 nM final concentration). […] The final concentration of DMSO in the reactions is equal to or less than 0.1%. Total and nonspecific binding was determined in the absence and presence of 10 μM almorexant. The total volume of each reaction is 200 μL (20 μL of diluted compounds, 80 μL of [^3H]-EMPA diluted in PBS and 100 μL of the cell suspension). […] The plates were washed 3 times by aspirating 30 ml PBS through the plates. Plates were dried in 55° C. oven for 60 min, scintillation fluid was added, and the radioactivity was counted on a Topcount (Packard).
On to `Cc1ccc(-c2ncccn2)c(C(=O)N2CCC[C@@H](Nc3cc(C)nc(C(F)(F)F)n3)[C@@H]2C)c1` (racemic) [Example 7, (±)-trans-(5-methyl-2-(pyrimidin-2-yl)phenyl)(2-methyl-3-((6-methyl-2-(trifluoromethyl)pyrimidin-4-yl)amino)piperidin-1-yl)methanone], for which the Ki came out at 243 nM.
Same read-out and setting: for `Cc1cc(N[C@@H]2CCCN(C(=O)c3cc(F)ccc3-c3ncccn3)[C@H]2C)nc(C(F)(F)F)n1` (racemic) [Example 9, (±)-trans-(5-fluoro-2-(pyrimidin-2-yl)phenyl)(2-methyl-3-((6-methyl-2-(trifluoromethyl)pyrimidin-4-yl)amino)piperidin-1-yl)methanone] the value was 2260 nM; for `Cc1ccc(-n2nccn2)c(C(=O)N2CCC[C@@H](Oc3ccc(C(F)(F)F)cn3)[C@@H]2C)n1` (racemic) [Example 109, (±)-trans-(2-methyl-3-((5-(trifluoromethyl)pyridin-2-yl)oxy)piperidin-1-yl)(6-methyl-3-(2H-1,2,3-triazol-2-yl)pyridin-2-yl)methanone], 463 nM.
Same read-out and setting: with `Cc1ccc(C(=O)N2CCC[C@@H](Nc3cnc(Cl)cn3)[C@@H]2C)c(-n2nccn2)c1` (relative stereo) [Example 180, ((2S*,3R*)-3-((5-chloropyrazin-2-yl)amino)-2-methylpiperidin-1-yl)(4-methyl-2-(2H-1,2,3-triazol-2-yl)phenyl)methanone] the figure was 1900 nM; with `COc1ccc(C(=O)N2CCC[C@@H](Nc3ncc(Cl)cn3)[C@@H]2C)c(-n2nccn2)c1` (relative stereo) [Example 185, ((2 S*,3R*)-3-((5-chloropyrimidin-2-yl)amino)-2-methylpiperidin-1-yl)(4-methoxy-2-(2H-1,2,3-triazol-2-yl)phenyl)methanone], 8600 nM; with `COc1ccc(C(=O)N2CCC[C@@H](Nc3cnc(Cl)cn3)[C@@H]2C)c(-n2nccn2)c1` (relative stereo) [Example 186, ((2S*,3R*)-3-((5-chloropyrazin-2-yl)amino)-2-methylpiperidin-1-yl)(4-methoxy-2-(2H-1,2,3-triazol-2-yl)phenyl)methanone], 9400 nM.
On the same count and under the same terms, with `COc1ccc(C(=O)N2CCC[C@@H](Nc3ccc(C(F)(F)F)cn3)[C@@H]2C)c(Cl)n1` (relative stereo) [Example 193, (2-chloro-6-methoxypyridin-3-yl)((2S*,3R*)-2-methyl-3-((5-(trifluoromethyl)pyridin-2-yl)amino)piperidin-1-yl)methanone] the figure was over 10000 nM.
In the case of `CCOc1ccc(C)nc1C(=O)N1CCC[C@@H](Nc2ccc(C(F)(F)F)cn2)[C@@H]1C` (relative stereo) [Example 194, (3-ethoxy-6-methylpyridin-2-yl)((2S*,3R*)-2-methyl-3-((5-(trifluoromethyl)pyridin-2-yl)amino)piperidin-1-yl)methanone], the Ki came out at 315 nM.
Consider `Cc1ccc(C(=O)N2CCC[C@@H](Nc3nnc(C(F)(F)F)s3)[C@@H]2C)c(-n2nccn2)n1` (relative stereo) [Example 196, (6-methyl-2-(2H-1,2,3-triazol-2-yl)pyridin-3-yl)((2S*,3R*)-2-methyl-3-((5-(trifluoromethyl)-1,3,4-thiadiazol-2-yl)amino)piperidin-1-yl)methanone], for which the Ki is over 10000 nM.
Same read-out and setting: with `C[C@H]1[C@H](Nc2ncc(C(F)(F)F)cn2)CCCN1C(=O)c1cccc(F)c1-c1ncccn1` (relative stereo) [Example 200, (3-fluoro-2-(pyrimidin-2-yl)phenyl)((2S*,3R*)-2-methyl-3-((5-(trifluoromethyl)pyrimidin-2-yl)amino)piperidin-1-yl)methanone] the figure was 985 nM.
On the same count and under the same terms, for `C[C@H]1[C@H](Nc2ncc(C(F)(F)F)cn2)CCCN1C(=O)c1ccc(F)cc1-c1ncccn1` (relative stereo) [Example 202, (4-fluoro-2-(pyrimidin-2-yl)phenyl)((2S*,3R*)-2-methyl-3-((5-(trifluoromethyl)pyrimidin-2-yl)amino)piperidin-1-yl)methanone] the value was 1500 nM; for `C[C@H]1[C@H](Nc2cnc(C(F)(F)F)cn2)CCCN1C(=O)c1cccc(F)c1-c1ncccn1` (relative stereo) [Example 207, (3-fluoro-2-(pyrimidin-2-yl)phenyl)((2S*,3R*)-2-methyl-3-((5-(trifluoromethyl)pyrazin-2-yl)amino)piperidin-1-yl)methanone], 385 nM; for `C[C@H]1[C@H](Oc2ccc(C(F)(F)F)cn2)CCCN1C(=O)c1ncccc1-c1ncccn1` (relative stereo) [Example 210, ((2S*,3R*)-2-methyl-3-((5-(trifluoromethyl)pyridin-2-yl)oxy)piperidin-1-yl)(3-(pyrimidin-2-yl)pyridin-2-yl)methanone], 742 nM.
Same read-out and setting: for `Cc1ccc(C(=O)N2CCC[C@@H](Nc3nc4ccccc4o3)[C@@H]2C)c(-n2nccn2)n1` [Example 75, ((2S,3R)-3-(benzo[d]oxazol-2-ylamino)-2-methylpiperidin-1-yl)(6-methyl-2-(2H-1,2,3-triazol-2-yl)pyridin-3-yl)methanone] the value was 8950 nM; for `C[C@H]1[C@H](Nc2ccc(Cl)cn2)CCCN1C(=O)c1ccccc1-n1nccn1` [Example 100, (2-(2H-1,2,3-triazol-2-yl)phenyl)((2S,3R)-3-((5-chloropyridin-2-yl)amino)-2-methylpiperidin-1-yl)methanone], 190 nM.
Regarding `Cc1ccc(-n2nccn2)c(C(=O)N2CCC[C@@H](Oc3ccc(C(F)(F)F)cn3)[C@@H]2C)n1` [Example 108, ((2S,3R)-2-methyl-3-((5-(trifluoromethyl)pyridin-2-yl)oxy)piperidin-1-yl)(6-methyl-3-(2H-1,2,3-triazol-2-yl)pyridin-2-yl)methanone], the inhibition constant Ki came to 301 nM.
Same read-out and setting: for `Cc1cccc(C(=O)N2CCC[C@@H](Oc3ncc(Cl)cn3)[C@@H]2C)c1-n1nccn1` [Example 163, ((2S,3R)-3-((5-chloropyrimidin-2-yl)oxy)-2-methylpiperidin-1-yl)(3-methyl-2-(2H-1,2,3-triazol-2-yl)phenyl)methanone] the value was 1050 nM.
